# In patent US7166688B1, “Chelation compositions” (LidoChem, Inc., priority 2000, dated 2007):
# Legend:
# [1] = Copper chelation, clear solution / precipitate test; type: physicochemical
# Experimental: A five percent chelated copper solution was prepared by blending 19 grams of basic copper sulfate in 100 ml of water. Concentrated HCl was added to solubilize the copper. Once in solution, 71 grams of the compound produced in Example 10 was added. […] This chelated copper solution is suitable for blending with phosphorus fertilizers.
# In 250 ml of water 1 gram of copper sulfate was added and mechanically stirred. To this solution, 10 ml of the diethanolsuccinamide-amino ethanol solution produced in Example 17 was added. The pH of the blend was adjusted to 8.4 and 1 gram of potassium phosphate was added the mixture.
# In another flask, 1 gram of copper sulfate was added to 250 ml of water and mechanically blended. Then, 1 gram of potassium phosphate was added to the blend. The pH of the solution was adjusted with potassium hydroxide. Immediately a powder solid was formed and precipitated. The hydroxide and phosphate salts of copper were formed.
# (§1) In 400 ml of water, 1 gram of copper sulfate was added and 10 ml of the product from example 28 were added. With mechanical stirring, 20 grams of monopotassium phosphate were added to the mix. The pH of the solution was then adjusted to 2 with HCl. The pH of the solution was then gradually raised with the addition of Monoethanolamine to a pH of 9.
# Two grams of basic copper sulfate were added to 200 ml of water. […]
# [2] = Iron chelation, clear solution / precipitate test; type: physicochemical
# Experimental: A five percent chelated iron solution was prepared by blending 18 ml of water with 100 grams of a (10% Fe) ferric nitrate solution. Once in solution, 82 grams of the compound produced in Example 10 was added.
# In 25 ml of water, 20 ml of a 1.8M ferric nitrate was added. Once in solution, 30 ml of the diethanolsuccinamide amino ethanol solution produced in Example 17 was added and the pH of the blend was adjusted to 9.2. Then 1 gram of potassium phosphate was added to the mixture.
# Five drops of 1.8 M ferric nitrate were added to one liter of water and mechanically blended. Then 10 grams of potassium phosphate were added to the solution and allowed to form insoluble potassium salts.
# In 400 ml of water, 20 ml of a 10% ferric nitrate solution were added, and 20 ml of the product from example 25 were added. With mechanical stirring, 40 grams of monopotassium phosphate was added the mix. The pH of the solution was then adjusted to 2 with HCl. The pH of the solution was then gradually raised with the addition of base to a pH of 10.
# In 400 ml of water, 10 ml of 1.8 M ferric nitrate solution were added and 20 ml of the product from example 28 were added. With mechanical stirring, 20 grams of monopotassium phosphate was added to the mix. The pH of the solution was then adjusted to 2 with HCL. The pH of the solution was then gradually raised with the addition of Monoethanolamine to a pH of 10.
# To a beaker containing one liter of water, 20 grams of potassium phosphate were added to form a clear solution.
# Thirty grams of 1.8 M ferric nitrate were added to 100 ml of water. The pH of the solution was lowered to 4 with phosphorous acid, and then 5 grams of Potassium phosphate were then added to the blend. Later 30 ml of the solution produced in example 29 was added.
# One hundred ml of the solution prepared in Example 41 was added to 500 ml of water and blended. 10 ml of 1.8-M ferric nitrate was then added to the mixture. […] The potassium salt of maleic acid was tested as a chelating agent.
# In a separate flask 20 grams of maleic anhydride were blended in 500 ml of water. Potassium hydroxide was then added to the blend to raise the pH to 10. Later ten ml of 1.8M ferric nitrate was added to the mix and 10 grams of potassium phosphate was also blended in. […] The contents of the flask were then blended again while MEA was added to the mix.
# [3] = Zinc chelation, clear solution / precipitate test; type: physicochemical
# Experimental: In 25 ml of water 1 gram of zinc sulfate was added. Once the zinc sulfate was in solution, 30 ml of the N,N-diethanolsuccinamide amino ethanol solution produced in Example 17 was added and the pH of the blend was adjusted to 9.5. Then 1 gram of potassium phosphate was added tho the mixture.
# In a separate flask 25 ml of water, 1 gram of zinc sulfate and 1 gram of potassium phosphate were blended together. Immediately a white precipitate formed.
# as §1, with “20 ml” for “1 gram”, “a 17% zinc nitrate solution were” for “copper sulfate was”, “60” for “10”, “40” for “20”
# A nine percent chelated zinc solution was prepared by blending 50 ml of water with 22.4 grams zinc oxide. Concentrated HCl was added until the solution was clear. Once in solution, 125 grams of the compound produced in Example 10 was added. […] This chelated zinc solution is suitable for blending with phosphorus fertilizers 2-ethanolaminesuccinic-N-ethanolsuccinicamide (tri potassium salt) has the following formula: […]
# Ten ml of 17% zinc solution were added to a liter of water. Later 20 grams of potassium phosphate were added and dissolved. Zinc phosphate formed a precipitate. Phosphorous acid was then added to lower the pH and clear the solution. Once clear 30 ml of the solution prepared in example 35 was added. This acidic solution, which was acidic, then remained undisturbed for a day, after which the pH was adjusted to 10 with the addition of MEA.
# [4] = Manganese chelation, clear solution / precipitate test; type: physicochemical
# Experimental: In 25 ml of water 10 ml of a manganese nitrate solution was added. Once the manganese nitrate was in solution, 30 ml of the N,N-diethanolsuccinamide amino ethanol solution produced in Example 17 was added to the mixture and the pH of the blend was adjusted to 6. Then 1 gram of potassium phosphate was added to the mixture.
# A five percent chelated manganese solution was prepared by blending 18 ml of water with 58 grams of a (17% Mn) manganese nitrate solution. Once the manganese nitrate was in solution, 82 grams of the compound produced in Example 10 was added. […] This chelated manganese solution is suitable for blending with phosphorus fertilizers.
# [5] = Calcium chelation, clear solution / precipitate test; type: physicochemical
# Experimental: In a preliminary study, 2 grams of calcium chloride dihydrate were added to 200 ml of water and mechanically stirred. Then 20 ml of the diethanolsuccinamide amino ethanol solution produced in example 17 was added to the blend.
# In another flask 2 grams of calcium chloride dihydrate were added to 200 ml of water and the pH was adjusted to 9. Almost immediately calcium hydroxide began to precipitate.
# Corn [6] = assay: Foliar applied IDS chelated minerals, tissue analysis, corn; type: in vivo
# Experimental: (§2) An experimental trial was completed testing the efficacy of the Iminodisuccinates (IDS) of this invention on five different crops. Below is the protocol and tissue analysis for both soil and foliar applied iminodisuccinate chelated mineral salts.
# (§3) A stock solution for foliar application was prepared by blending 6000 ml of water with T-DAT 09, (Harcross Chemical Company, USA) a surfactant, added to spray mix at 2 drops per liter. • 1). 5 ml of 9% zinc was added to 1 liter of stock solution. • 2). 5 ml of 5% copper was added to 1 liter of stock solution. • 3). 5 ml of 5% manganese was added to 1 liter of stock solution. • 4). 5 ml of 5% Iron was added to 1 liter of stock solution. • 5). 4 ml of 9% zinc, 1 ml of 5% copper, 1 ml of 5% manganese, and 1 ml of 5% iron was added to 1 liter of stock solution. • 6). Stock solution without further addition.
# (§4) All plants were sprayed until wet. Harvested material was placed in an oven for one day and sent to the lab for tissue analysis. Harvesting occurred thirty days after planting and some plants had not grown enough to get complete lab results reported. The harvested corn plants were cut at the whirl to insure only new leaves would be tested. The soybeans were clipped above the cotyledon. The alfalfa and clover were removed from the soil and the roots were removed. The wheat was cut at the tillering node.
# Wheat [7] = assay: Foliar applied IDS chelated minerals, tissue analysis, wheat; type: in vivo
# Experimental: as §2, §3, §4
# Clover [8] = assay: Foliar applied IDS chelated minerals, tissue analysis, clover; type: in vivo
# Experimental: as §2, §3, §4
# Soybean [9] = assay: Foliar applied IDS chelated minerals, tissue analysis, soybeans; type: in vivo
# Experimental: as §2, §3, §4
# Clover [10] = assay: Soil applied IDS chelated minerals with 10-34-0, tissue analysis, clover; type: in vivo
# Experimental: as §2
# (§5) A). The control pots were watered without any further treatments.
# (§6) B). An ammonium polyphosphate stock solution was prepared by adding 50 ml of the 10-34-0 to 4000 ml of water. Treated plants received 100 ml of the stock solution.
# (§7) (C). The Zinc stock solution was prepared by blending 10 ml of IDS chelated 9% Zinc to a blend of 50 ml of 10-34-0 with 4000 ml of water. Treated plants received 100 ml of the zinc stock solution.
# (§8) (D). The mixture of IDS chelated micronutrients was prepared by adding 4 ml of 9% Zinc, 1 ml of 5% Copper, 1 ml of 5% manganese, and 1 ml of 5% Iron. This mixture was then blended with 4000 ml of water and 50 ml of 10-34-0.
# as §4
# Wheat [11] = assay: Soil applied IDS chelated minerals with 10-34-0, tissue analysis, wheat; type: in vivo
# Experimental: as §2, §5, §6, §7, §8, §4
# Corn [12] = assay: Soil applied IDS chelated minerals with 10-34-0, tissue analysis, corn; type: in vivo
# Experimental: as §2, §5, §6, §7, §8, §4
# Soybean [13] = assay: Soil applied IDS chelated minerals with 10-34-0, tissue analysis, soybeans; type: in vivo
# Experimental: as §2, §5, §6, §7, §8, §4
compound,measurement,setting,value
2-ethanolaminesuccinic-N-ethanolsuccinicamide [Example 10],appearance of finished solution / precipitates,"[1]; five percent chelated copper solution: 19 grams basic copper sulfate in 100 ml water, HCl, 71 grams compound, pH of 5",free of precipitates
same,appearance of finished solution / precipitates,"[2]; five percent chelated iron solution: 18 ml water, 100 grams (10% Fe) ferric nitrate solution, 82 grams compound, pH of 5",clear and free of precipitates
same,appearance of finished solution / precipitates,"[3]; nine percent chelated zinc solution: 22.4 grams zinc oxide in 50 ml water, HCl, 125 grams compound, pH of 5",clear and free of precipitates
same,appearance of finished solution / precipitates,"[4]; five percent chelated manganese solution: 18 ml water, 58 grams (17% Mn) manganese nitrate solution, 82 grams compound, pH of 5",clear and free of precipitates
"O=C(CC(C(=O)[O-])N(CCO)C(CC(=O)NCCO)C(=O)[O-])NCCO.[K+].[K+] (stereo not shown) [Example 17, diethanolsuccinicamide-amino ethanol]",appearance of blend / precipitates,"[1]; 1 gram copper sulfate in 250 ml water, 10 ml solution, pH 8.4, 1 gram potassium phosphate","clear, dark blue and free of precipitates"
same,appearance of blend / precipitates,"[2]; 20 ml 1.8M ferric nitrate in 25 ml water, 30 ml solution, pH 9.2, 1 gram potassium phosphate","clear, dark ruby red and free of precipitates"
same,appearance of blend / precipitates,"[3]; 1 gram zinc sulfate in 25 ml water, 30 ml solution, pH 9.5, 1 gram potassium phosphate","clear, yellow, and free of precipitates"
same,appearance of blend / precipitates,"[4]; 10 ml manganese nitrate solution in 25 ml water, 30 ml solution, pH 6, 1 gram potassium phosphate","clear, amber in color, and free of precipitates"
same,appearance of solution / precipitates,"[5]; 2 grams calcium chloride dihydrate in 200 ml water, 20 ml solution, pH 9",a clear solution free of precipitates
same,calcium phosphate precipitate formation,"[5]; same solution lowered to a pH of 5.5, phosphate salts added",without calcium phosphate precipitate formation
"O=C([O-])CC(C(=O)[O-])N(CCO)C(CC(=O)[O-])C(=O)[O-].[K+].[K+].[K+].[K+] (stereo not shown) [Example 35, N,N-disuccinic-amino-ethanol tetra potassium salt]",redissolution of precipitated ferric phosphate,"[2]; 20 grams potassium phosphate and 10 grams 1.8 M ferric solution in one liter water, 2.4 grams of the 0.75 M solution added",a clear yellow solution was produced inmediately
same,appearance of solution / precipitates,"[3]; 10 ml 17% zinc solution and 20 grams potassium phosphate in a liter of water, phosphorous acid, 30 ml solution, after a day pH 10 with MEA","remained clear, free of precipitates, and colorless"
ZINC,"zinc in plant tissue, TREATED","Corn [6]; harvested 30 days after planting, control 15.6",792 parts per million
same,"zinc in plant tissue, CHANGE",Corn [6]; treated minus control 15.6,776.4 parts per million
same,"zinc in plant tissue, % change",Corn [6]; versus control 15.6,4977%
same,"zinc in plant tissue, TREATED","Wheat [7]; harvested 30 days after planting, control 44.3",563 parts per million
same,"zinc in plant tissue, CHANGE",Wheat [7]; treated minus control 44.3,518.7 parts per million
same,"zinc in plant tissue, TREATED","Clover [8]; harvested 30 days after planting, control 56.7",1264 parts per million
same,"zinc in plant tissue, CHANGE",Clover [8]; treated minus control 56.7,1207.3 parts per million
same,"zinc in plant tissue, TREATED","Soybean [9]; harvested 30 days after planting, control 63.8",1000 parts per million
same,"zinc in plant tissue, CHANGE",Soybean [9]; treated minus control 63.8,936.2 parts per million
same,"zinc in plant tissue, % change",Soybean [9]; versus control 63.8,1467%
same,"zinc in plant tissue, TREATED","Clover [10]; soil applied with 10-34-0, harvested 30 days after planting, control 53.4",231
same,"zinc in plant tissue, CHANGE","Clover [10]; soil applied, treated minus control 53.4",177.6
same,"zinc in plant tissue, % change","Clover [10]; soil applied, versus control 53.4",333%
same,"zinc in plant tissue, TREATED","Wheat [11]; soil applied with 10-34-0, harvested 30 days after planting, control 39",93.1
same,"zinc in plant tissue, CHANGE","Wheat [11]; soil applied, treated minus control 39",54.1
same,"zinc in plant tissue, % change","Wheat [11]; soil applied, versus control 39",139%
same,"zinc in plant tissue, TREATED","Corn [12]; soil applied with 10-34-0, harvested 30 days after planting, control 24",69.6
same,"zinc in plant tissue, CHANGE","Corn [12]; soil applied, treated minus control 24",45.6
same,"zinc in plant tissue, %","Corn [12]; soil applied, versus control 24",190%
same,"zinc in plant tissue, TREATED","Soybean [13]; soil applied with 10-34-0, harvested 30 days after planting, control 19.4",136
same,"zinc in plant tissue, CHANGE","Soybean [13]; soil applied, treated minus control 19.4",116.6
same,"zinc in plant tissue, %","Soybean [13]; soil applied, versus control 19.4",601%
